Source: PubChem BioAssay AID2060621 (Molecular Pharmacology Branch, DTP, NCI, 2025)

System: 324938-238-R-J1-PDC complex spheroids viability
Test: Anticancer human tumor 324938-238-R-J1-PDC patient-derived bladder carcinoma cell line growth inhibition [CLK]
Details: for IC50: curve of first compound; for viability, T/C: stronger effect = lower value
Method in brief: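 Multi-cell-type spheroids combined patient-derived tumor cells with HUVEC endothelial cells and human mesenchymal stem cells. Paired agents were dosed in half-log steps down from about clinical Cmax, or from 10 microM where Cmax was unknown.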

[1] = second compound 0.0316 µM, first compound 0.0316 µM
[2] = second compound 0.0316 µM, first compound 0.1 µM
[3] = second compound 0.0316 µM, first compound 0.316 µM
[4] = second compound 0.0316 µM, first compound 1 µM
[5] = second compound 0.0316 µM, first compound 3.16 µM
[6] = second compound 0.0316 µM, first compound 10 µM
[7] = second compound 0.1 µM, first compound 0.0316 µM
[8] = second compound 0.1 µM, first compound 0.1 µM
[9] = second compound 0.1 µM, first compound 0.316 µM
[10] = second compound 0.1 µM, first compound 1 µM
[11] = second compound 0.1 µM, first compound 3.16 µM
[12] = second compound 0.1 µM, first compound 10 µM
[13] = second compound 0.316 µM, first compound 0.0316 µM
[14] = second compound 0.316 µM, first compound 0.1 µM
[15] = second compound 0.316 µM, first compound 0.316 µM
[16] = second compound 0.316 µM, first compound 1 µM
[17] = second compound 0.316 µM, first compound 3.16 µM
[18] = second compound 0.316 µM, first compound 10 µM
[19] = second compound 1 µM, first compound 0.0316 µM
[20] = second compound 1 µM, first compound 0.1 µM
[21] = second compound 1 µM, first compound 0.316 µM
[22] = second compound 1 µM, first compound 1 µM
[23] = second compound 1 µM, first compound 3.16 µM
[24] = second compound 1 µM, first compound 10 µM
[25] = second compound 3.16 µM, first compound 0.0316 µM
[26] = second compound 3.16 µM, first compound 0.1 µM
[27] = second compound 3.16 µM, first compound 0.316 µM
[28] = second compound 3.16 µM, first compound 1 µM
[29] = second compound 3.16 µM, first compound 3.16 µM
[30] = second compound 3.16 µM, first compound 10 µM
[31] = second compound 10 µM, first compound 0.0316 µM
[32] = second compound 10 µM, first compound 0.1 µM
[33] = second compound 10 µM, first compound 0.316 µM
[34] = second compound 10 µM, first compound 1 µM
[35] = second compound 10 µM, first compound 3.16 µM
[36] = second compound 10 µM, first compound 10 µM
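Further: viability read after seven days of drug exposure.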
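Wherever viability, T/C is given: 100% = DMSO vehicle control wells.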

Question: Which IC50 (second compound 0.0316 µM) does the source give for `C=CC(=O)N1CCN(c2nc(=O)n(-c3c(C)ccnc3C(C)C)c3nc(-c4c(O)cccc4F)c(F)cc23)C(C)C1` (stereo unspecified) + CNC(=O)c1ccc(Nc2nc(OC3CCCC3)c3c(-c4ccc5nc(C)oc5c4)c[nH]c3n2)c(OC)c1 here?
Answer: > 10000 nM

Question: What about the IC50 (second compound 0.1 µM) of the same compound?
Answer: < 31.6 nM

Question: And the IC50 (second compound 0.316 µM)?
Answer: < 31.6 nM

Question: What about the IC50 (second compound 1 µM) of the same compound?
Answer: < 31.6 nM

Question: And the IC50 (second compound 3.16 µM)?
Answer: < 31.6 nM

Question: And the IC50 (second compound 10 µM)?
Answer: < 31.6 nM

Question: What about the viability, T/C [1] of the same compound?
Answer: 92.7%

Question: And the viability, T/C [2]?
Answer: 95.3%

Question: And the viability, T/C [3]?
Answer: 96.2%

Question: And the viability, T/C [4]?
Answer: 102%

Question: What about the viability, T/C [5] of the same compound?
Answer: 88.8%

Question: What about the viability, T/C [6] of the same compound?
Answer: 81.4%

Question: What about the viability, T/C [7] of the same compound?
Answer: 32.6%

Question: What about the viability, T/C [8] of the same compound?
Answer: 30.8%

Question: And the viability, T/C [9]?
Answer: 27.9%

Question: And the viability, T/C [10]?
Answer: 35.1%

Question: And the viability, T/C [11]?
Answer: 33.5%

Question: And the viability, T/C [12]?
Answer: 31.6%

Question: And the viability, T/C [13]?
Answer: 20.4%

Question: What about the viability, T/C [14] of the same compound?
Answer: 17.4%

Question: And the viability, T/C [15]?
Answer: 20.7%

Question: What about the viability, T/C [16] of the same compound?
Answer: 20.4%

Question: And the viability, T/C [17]?
Answer: 23.9%

Question: And the viability, T/C [18]?
Answer: 27.4%

Question: What about the viability, T/C [19] of the same compound?
Answer: 15.3%

Question: What about the viability, T/C [20] of the same compound?
Answer: 16.1%

Question: And the viability, T/C [21]?
Answer: 16.5%

Question: And the viability, T/C [22]?
Answer: 19.3%

Question: What about the viability, T/C [23] of the same compound?
Answer: 20.5%

Question: What about the viability, T/C [24] of the same compound?
Answer: 21.5%

Question: What about the viability, T/C [25] of the same compound?
Answer: 18.3%

Question: And the viability, T/C [26]?
Answer: 18.4%

Question: What about the viability, T/C [27] of the same compound?
Answer: 20.4%

Question: And the viability, T/C [28]?
Answer: 18.8%

Question: What about the viability, T/C [29] of the same compound?
Answer: 23.7%

Question: What about the viability, T/C [30] of the same compound?
Answer: 25.5%

Question: And the viability, T/C [31]?
Answer: 19.4%

Question: And the viability, T/C [32]?
Answer: 15.6%

Question: What about the viability, T/C [33] of the same compound?
Answer: 18.5%

Question: And the viability, T/C [34]?
Answer: 21%

Question: What about the viability, T/C [35] of the same compound?
Answer: 25.5%

Question: And the viability, T/C [36]?
Answer: 25.7%

Question: Which IC50 (second compound 0.0316 µM) does the source give for `CCCS(=O)(=O)Nc1ccc(F)c(C(=O)c2c[nH]c3ncc(-c4ccc(Cl)cc4)cc23)c1F` + CNC(=O)c1ccc(Nc2nc(OC3CCCC3)c3c(-c4ccc5nc(C)oc5c4)c[nH]c3n2)c(OC)c1 here?
Answer: 8550 nM

Question: And the IC50 (second compound 0.1 µM)?
Answer: < 31.6 nM

Question: And the IC50 (second compound 0.316 µM)?
Answer: < 31.6 nM

Question: And the IC50 (second compound 1 µM)?
Answer: < 31.6 nM

Question: And the IC50 (second compound 3.16 µM)?
Answer: < 31.6 nM

Question: What about the IC50 (second compound 10 µM) of the same compound?
Answer: < 31.6 nM

Question: And the viability, T/C [1]?
Answer: 89.8%

Question: And the viability, T/C [2]?
Answer: 89.2%

Question: And the viability, T/C [3]?
Answer: 92.1%

Question: And the viability, T/C [4]?
Answer: 103%

Question: What about the viability, T/C [5] of the same compound?
Answer: 98.6%

Question: What about the viability, T/C [6] of the same compound?
Answer: 43%

Question: What about the viability, T/C [7] of the same compound?
Answer: 31.2%

Question: And the viability, T/C [8]?
Answer: 32.5%

Question: And the viability, T/C [9]?
Answer: 29.6%

Question: And the viability, T/C [10]?
Answer: 29.1%

Question: And the viability, T/C [11]?
Answer: 35.8%

Question: And the viability, T/C [12]?
Answer: 33.8%

Question: And the viability, T/C [13]?
Answer: 19.8%

Question: And the viability, T/C [14]?
Answer: 18%

Question: And the viability, T/C [15]?
Answer: 20.9%

Question: What about the viability, T/C [16] of the same compound?
Answer: 19.3%

Question: And the viability, T/C [17]?
Answer: 24.4%

Question: What about the viability, T/C [18] of the same compound?
Answer: 26.1%

Question: And the viability, T/C [19]?
Answer: 25.1%

Question: And the viability, T/C [20]?
Answer: 15.8%

Question: And the viability, T/C [21]?
Answer: 18.2%

Question: What about the viability, T/C [22] of the same compound?
Answer: 22%

Question: What about the viability, T/C [23] of the same compound?
Answer: 19.2%

Question: And the viability, T/C [24]?
Answer: 18.1%

Question: And the viability, T/C [25]?
Answer: 15.2%

Question: What about the viability, T/C [26] of the same compound?
Answer: 15.8%

Question: What about the viability, T/C [27] of the same compound?
Answer: 19.3%

Question: What about the viability, T/C [28] of the same compound?
Answer: 19.1%

Question: What about the viability, T/C [29] of the same compound?
Answer: 22.4%

Question: And the viability, T/C [30]?
Answer: 15.5%

Question: And the viability, T/C [31]?
Answer: 17.5%

Question: What about the viability, T/C [32] of the same compound?
Answer: 18.8%

Question: And the viability, T/C [33]?
Answer: 17.4%

Question: And the viability, T/C [34]?
Answer: 18.3%

Question: What about the viability, T/C [35] of the same compound?
Answer: 23.9%

Question: And the viability, T/C [36]?
Answer: 17.2%

Question: `COC1C=CCC(C)C(C)S(=O)(=O)NC(=O)c2ccc3c(c2)N(CC2CCC21)CC1(CCCc2cc(Cl)ccc21)CO3` (stereo unspecified) + CNC(=O)c1ccc(Nc2nc(OC3CCCC3)c3c(-c4ccc5nc(C)oc5c4)c[nH]c3n2)c(OC)c1 was tested. Which IC50 (second compound 0.0316 µM) did it give?
Answer: 210 nM

Question: And the IC50 (second compound 0.1 µM)?
Answer: < 31.6 nM

Question: What about the IC50 (second compound 0.316 µM) of the same compound?
Answer: < 31.6 nM

Question: And the IC50 (second compound 1 µM)?
Answer: < 31.6 nM

Question: What about the IC50 (second compound 3.16 µM) of the same compound?
Answer: < 31.6 nM

Question: What about the IC50 (second compound 10 µM) of the same compound?
Answer: < 31.6 nM

Question: What about the viability, T/C [1] of the same compound?
Answer: 89.6%

Question: What about the viability, T/C [2] of the same compound?
Answer: 79.6%

Question: And the viability, T/C [3]?
Answer: 32.8%

Question: What about the viability, T/C [4] of the same compound?
Answer: 21.8%

Question: What about the viability, T/C [5] of the same compound?
Answer: 15.3%

Question: And the viability, T/C [6]?
Answer: 7.03%

Question: And the viability, T/C [7]?
Answer: 31.7%

Question: What about the viability, T/C [8] of the same compound?
Answer: 27.9%

Question: And the viability, T/C [9]?
Answer: 24.4%

Question: What about the viability, T/C [10] of the same compound?
Answer: 15.4%

Question: What about the viability, T/C [11] of the same compound?
Answer: 22.5%

Question: And the viability, T/C [12]?
Answer: 8.36%

Question: And the viability, T/C [13]?
Answer: 18%

Question: And the viability, T/C [14]?
Answer: 15.1%

Question: And the viability, T/C [15]?
Answer: 12.9%

Question: And the viability, T/C [16]?
Answer: 12.1%

Question: What about the viability, T/C [17] of the same compound?
Answer: 10.7%

Question: What about the viability, T/C [18] of the same compound?
Answer: 7.76%

Question: And the viability, T/C [19]?
Answer: 15.1%

Question: What about the viability, T/C [20] of the same compound?
Answer: 13.3%

Question: And the viability, T/C [21]?
Answer: 11.8%

Question: And the viability, T/C [22]?
Answer: 11.2%

Question: What about the viability, T/C [23] of the same compound?
Answer: 11.3%

Question: What about the viability, T/C [24] of the same compound?
Answer: 7.89%

Question: What about the viability, T/C [25] of the same compound?
Answer: 16.1%

Question: What about the viability, T/C [26] of the same compound?
Answer: 13.2%

Question: And the viability, T/C [27]?
Answer: 13.1%

Question: And the viability, T/C [28]?
Answer: 10.6%

Question: What about the viability, T/C [29] of the same compound?
Answer: 11.4%

Question: What about the viability, T/C [30] of the same compound?
Answer: 8.28%

Question: And the viability, T/C [31]?
Answer: 14.7%

Question: What about the viability, T/C [32] of the same compound?
Answer: 15%

Question: And the viability, T/C [33]?
Answer: 15%

Question: What about the viability, T/C [34] of the same compound?
Answer: 10.7%

Question: What about the viability, T/C [35] of the same compound?
Answer: 11.6%

Question: What about the viability, T/C [36] of the same compound?
Answer: 9.83%
